Measurements from patent US9469637B2, “Nitrogenated heterocyclic compound” (Takeda Pharmaceutical Company Limited, priority 2012, dated 2016).

biological target: T1, Human PDE2A3 enzyme (Homo sapiens, UniProt O00408); assay: PDE2A3 enzyme inhibition, SPA (Scintillation Proximity Assay); format: biochemical; conditions: 1 μM compound, substrate [3H] cGMP, read-out: Inhibition Rate (%) (1 μM)
T1 construct: generated from Sf9 cells transfected with the full-length gene; His-tag; made in house; host or cells: Sf9 insect cells
T1 sequence (O00408 whole entry): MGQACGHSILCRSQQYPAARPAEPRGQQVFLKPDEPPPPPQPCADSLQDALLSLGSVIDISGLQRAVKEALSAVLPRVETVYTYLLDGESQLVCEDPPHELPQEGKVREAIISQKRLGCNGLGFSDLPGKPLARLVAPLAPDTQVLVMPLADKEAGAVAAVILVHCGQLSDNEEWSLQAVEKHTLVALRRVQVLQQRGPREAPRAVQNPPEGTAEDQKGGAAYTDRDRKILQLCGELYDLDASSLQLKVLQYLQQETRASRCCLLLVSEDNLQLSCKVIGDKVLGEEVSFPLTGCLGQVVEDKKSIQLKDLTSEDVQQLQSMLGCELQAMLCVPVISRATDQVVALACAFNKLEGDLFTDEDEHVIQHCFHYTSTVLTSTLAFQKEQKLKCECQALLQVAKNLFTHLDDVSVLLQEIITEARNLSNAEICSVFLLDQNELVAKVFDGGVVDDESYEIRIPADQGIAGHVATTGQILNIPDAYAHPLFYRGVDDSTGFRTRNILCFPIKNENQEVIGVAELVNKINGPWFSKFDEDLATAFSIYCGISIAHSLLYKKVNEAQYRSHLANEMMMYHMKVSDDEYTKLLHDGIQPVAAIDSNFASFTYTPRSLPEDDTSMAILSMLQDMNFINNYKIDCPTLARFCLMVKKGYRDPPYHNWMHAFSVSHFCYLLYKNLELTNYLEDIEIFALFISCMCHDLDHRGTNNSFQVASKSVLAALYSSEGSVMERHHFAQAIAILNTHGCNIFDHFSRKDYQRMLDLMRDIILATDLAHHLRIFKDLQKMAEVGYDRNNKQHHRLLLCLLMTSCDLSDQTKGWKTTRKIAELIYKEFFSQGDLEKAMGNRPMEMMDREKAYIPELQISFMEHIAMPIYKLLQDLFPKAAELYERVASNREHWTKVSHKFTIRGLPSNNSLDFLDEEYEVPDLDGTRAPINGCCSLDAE
Description: Human PDE2A3 enzyme was generated from Sf9 cells transfected with the full-length gene. The extracted enzyme from Sf9 cells was purified by His-tag affinity column and gel filtration. The enzyme was stored at −70° C. until use. PDE activity was measured using a SPA (Scintillation Proximity Assay) (GE Healthcare). To evaluate the inhibitory activity, 10 μl of serial diluted compounds were incubated with 20 μl of PDE enzyme in assay buffer (50 mM HEPES-NaOH, 8.3 mM MgCl2, 1.7 mM EGTA, 0.1% BSA (pH 7.4)) for 30 min. at room temperature. Final concentration of DMSO in the assay was 1 percent as compounds were tested in duplicate in 96-well half-area plates (Corning) or 384-well OptiPlate (PerkinElmer). To start the reaction, 10 μl of substrate [^3H] cGMP (77 nM, PerkinElmer) was added for a final assay volume of 40 μl. After 60 min incubation at room temperature, 20 μl of 20 mg/ml yttrium SPA beads containing Zinc sulphate was added to terminate the PDE reaction. […] Inhibition rate was calculated on the basis of 0% control wells with enzyme and DMSO, and 100% control wells without enzyme.

inhibition at 1 µM	Compound
100%	CC(C)(O)C(NC(=O)N1CC(=O)Nc2cc(C3CC3)cnc21)c1ccc(C(F)(F)F)cc1 (stereo not drawn) [Example 266, Optically active 7-cyclopropyl-N-(2-hydroxy-2-methyl-1-(4-(trifluoromethyl)phenyl)propyl)-2-oxo-2,3-dihydropyrido[2,3-b]pyrazine-4(1H)-carboxamide]
98%	COCC(NC(=O)N1CC(=O)Nc2cc(C)cnc21)c1ccc(-n2cccn2)c(F)c1 (stereo not drawn) [Example 143, N-(1-(3-fluoro-4-(1H-pyrazol-1-yl)phenyl)-2-methoxyethyl)-7-methyl-2-oxo-2,3-dihydropyrido[2,3-b]pyrazine-4(1H)-carboxamide]
99%	COC[C@@H](NC(=O)N1CC(=O)Nc2ccc(-n3cccn3)nc21)c1ccc(OC(F)(F)F)cc1 [Example 130, N-((1S)-2-methoxy-1-(4-(trifluoromethoxy)phenyl)ethyl)-2-oxo-6-(1H-pyrazol-1-yl)-2,3-dihydropyrido[2,3-b]pyrazine-4(1H)-carboxamide]
99%	COC[C@@H](NC(=O)N1CC(=O)Nc2ccc(-n3cccn3)nc21)c1ccc(OC(F)(F)F)c(F)c1 [Example 117, N-((1S)-1-(3-fluoro-4-(trifluoromethoxy)phenyl)-2-methoxyethyl)-2-oxo-6-(1H-pyrazol-1-yl)-2,3-dihydropyrido[2,3-b]pyrazine-4(1H)-carboxamide]
100%	Cc1cnc2c(c1)NC(=O)CN2C(=O)NC(c1ccc(OC(F)(F)F)cc1)C1CCCO1 (stereo not drawn) [Example 200, 7-methyl-2-oxo-N-(tetrahydrofuran-2-yl(4-(trifluoromethoxy)phenyl)methyl)-2,3-dihydropyrido[2,3-b]pyrazine-4(1H)-carboxamide]
98%	Cc1cnc2c(c1)NC(=O)CN2C(=O)NC(c1ccc(OC(F)(F)F)c(F)c1)C(C)(C)O (stereo not drawn) [Example 273, Optically active N-(1-(3-fluoro-4-(trifluoromethoxy)phenyl)-2-hydroxy-2-methylpropyl)-7-methyl-2-oxo-2,3-dihydropyrido[2,3-b]pyrazine-4(1H)-carboxamide]
100%	COc1nc2c(cc1C)NC(=O)CN2C(=O)N[C@@H](c1ccc(OC(F)(F)F)cc1)C(C)(C)O [Example 261, N-((1S)-2-hydroxy-2-methyl-1-(4-(trifluoromethoxy)phenyl)propyl)-6-methoxy-7-methyl-2-oxo-2,3-dihydropyrido[2,3-b]pyrazine-4(1H)-carboxamide]

Continued, compound first:

Compound	inhibition at 1 µM
CCC(NC(=O)N1CC(=O)Nc2cc(C)cnc21)c1ccc(-n2cccn2)s1 (stereo not drawn) [Example 162, 7-methyl-2-oxo-N-(1-(5-(1H-pyrazol-1-yl)-2-thienyl)propyl)-2,3-dihydropyrido[2,3-b]pyrazine-4(1H)-carboxamide]	97%
CC(C)(O)C(NC(=O)N1CC(=O)Nc2cc(C3CC3)cnc21)c1ccc(OC(F)(F)F)c(F)c1 (stereo not drawn) [Example 76, Optically active 7-cyclopropyl-N-(1-(3-fluoro-4-(trifluoromethoxy)phenyl)-2-hydroxy-2-methylpropyl)-2-oxo-2,3-dihydropyrido[2,3-b]pyrazine-4(1H)-carboxamide]	100%
CCC(NC(=O)N1CC(=O)Nc2ccc(OC)nc21)c1ccc(OC(F)(F)F)cc1 (stereo not drawn) [Example 52, 6-methoxy-2-oxo-N-(1-(4-(trifluoromethoxy)phenyl)propyl)-2,3-dihydropyrido[2,3-b]pyrazine-4(1H)-carboxamide]	93%
COCC(NC(=O)N1CC(=O)Nc2cc(C)cnc21)c1ccc(-n2cccn2)cc1 (stereo not drawn) [Example 134, N-(2-methoxy-1-(4-(H-pyrazol-1-yl)phenyl)ethyl)-7-methyl-2-oxo-2,3-dihydropyrido[2,3-b]pyrazine-4(1H)-carboxamide]	97%
COc1cc2c(nc1C)N(C(=O)N[C@@H](c1ccc(OC(F)(F)F)cc1)C(C)(C)O)CC(=O)N2 [Example 253, N-((1S)-2-hydroxy-2-methyl-1-(4-(trifluoromethoxy)phenyl)propyl)-7-methoxy-6-methyl-2-oxo-2,3-dihydropyrido[2,3-b]pyrazine-4(1H)-carboxamide]	100%
COc1cnc2c(c1)NC(=O)CN2C(=O)NC(c1ccc(C(F)(F)F)cc1)C(C)(C)O (stereo not drawn) [Example 268, Optically active N-(2-hydroxy-2-methyl-1-(4-(trifluoromethyl)phenyl)propyl)-7-methoxy-2-oxo-2,3-dihydropyrido[2,3-b]pyrazine-4(1H)-carboxamide]	99%
COCC(NC(=O)N1CC(=O)Nc2ccc(-c3ccn(C)n3)nc21)c1ccc(OC(F)(F)F)cc1 (stereo not drawn) [Example 222, N-(2-methoxy-1-(4-(trifluoromethoxy)phenyl)ethyl)-6-(1-methyl-1H-pyrazol-3-yl)-2-oxo-2,3-dihydropyrido[2,3-b]pyrazine-4(1H)-carboxamide]	99%
Cc1cnc2c(c1)NC(=O)CN2C(=O)NC1(c2ccc(OC(F)(F)F)cc2)CC1 [Example 152, 7-methyl-2-oxo-N-(1-(4-(trifluoromethoxy)phenyl)cyclopropyl)-2,3-dihydropyrido[2,3-b]pyrazine-4(1H)-carboxamide]	97%
